Results on 8 compounds are retold here after patent EP4289427A1, “DIHYDRO[1,8]NAPHTHYRIDIN-7-ONE AND PYRIDO[3,2-B][1,4]OXAZIN-3-ONE FOR USE IN TREATING CANCER, AND METASTASES IN PARTICULAR” (Anagenesis Biotechnologies, priority 2022, dated 2023).

The test system of one data set is RD cells. Nature of the data set: Cytotoxicity assay (CellTiter-Glo 2.0) on RD cells. The format is cell-based, Human. The conditions noted are these: for IC50: Homo sapiens. The protocol: (§1) Cytotoxicity assays consist in treating cells with compounds and assessing remaining viability after a defined incubation time, depending on the cell line. CellTiter-Glo® 2.0 reagent allows viability measurement by quantification of ATP present, which is an indicator of metabolically active cells.
(§2) The cancer cell lines were cultivated in their respective growth medium (see tables 6a and 6b). On day 0 of the cytotoxicity assay, the cells were harvested and seeded into a 384-well plate at a defined density in their respective growth medium (see tables 6a and 6b). Compounds to be tested were then added onto the cells and incubated for a defined duration (see tables 6a and 6b). Following incubation, CellTiter-Glo® 2.0 reagent (cat.no. G9241 from Promega) was added into the wells (vol/vol, according to the manufacturer's recommendations), plates were gently shaken and incubated for 10 minutes in the dark at room temperature. Bioluminescence was then measured with a multimode plate reader (Victor Nivo from Perkin Elmer), and cell viability and relative IC50 were determined. Table 6a: Cancer cell characteristics, culture and cytotoxic assay conditions
For orientation: ATP-based viability assays read luminescence as a measure of living cells.

A further data set has as its system 4T1 cells. Nature of the data set: Cytotoxicity assay (CellTiter-Glo 2.0) on 4T1 cells. The format is cell-based, Mouse. Particulars: incubation 2 days; for IC50: Mus musculus, 48 h. How it is done:
as §1, §2

The subject of a further data set is MDA-MB-231 cells. The experiment in a line: Cytotoxicity assay (CellTiter-Glo 2.0) on MDA-MB-231 cells. The format is cell-based, Human. Particulars: incubation 3 days; for IC50: Homo sapiens, 72 h. The protocol: as §1, §2
Another data set has as its system EoL-1 cells. Nature of the data set: Cytotoxicity assay (CellTiter-Glo 2.0) on EoL-1 cells. The format is cell-based, Human. Particulars: incubation 1 day; for IC50: Homo sapiens, EOL1, 24 h. The protocol:
as §1, §2

The test system of the next data set is HUVECs. The experiment in a line: Tube formation assay (anti-angiogenic activity). The conditions noted are these: incubation 16 to 18 hours; for IC50: Homo sapiens, HUVEC. It counts as cell-based, human. The text has this:
Angiogenesis is a phenomenon that includes different processes, such as endothelial cell proliferation, migration and differentiation that lead to the formation of new blood vessels. Tube formation assay is a standard in vitro test to assess angiogenesis: briefly, human Umbilical Vein Endothelial cells (hereafter "HUVECs") cultivated on a gelled basement matrix spontaneously proliferate, migrate and differentiate to form tube-like structures, that appear elongated and that connect to each other to form a network.
HUVECs were cultivated in Endothelial Cell Growth Medium (cat.no. C-22010 from Promocell) supplemented with 1% PenStrep (hereafter "HUVEC medium"). On day 0, HUVECs were harvested and transferred into a 384-well plate precoated with 10 µl/well of Cultrex UltiMatrix Reduced Growth factor basement membrane (cat.no. BME001-10 from BioTechne), according to the manufacturer's instructions, at a density of 5000 cells/well in HUVEC medium. Compounds to be tested were then added onto the cells and incubated for 16 to 18 hours at 37°C. After this incubation period, the cells were stained with calcein-AM (cat.no. 10462052 from Fisher Scientific) and pictures were acquired using a confocal fluorescent microscope (IXM from Molecular Devices). Tube formation was measured with MetaXpress® Software.

Usually IC50 stands for the point on the concentration scale where inhibition reaches its midpoint. `CSc1cc(Oc2ccnc3c2CCC(=O)N3)ccc1NC(=O)Nc1cncc(C(F)(F)F)c1` [Compound 005, 1-(2-(methylthio)-4-((7-oxo-5,6,7,8-tetrahydro-1,8-naphthyridin-4-yl)oxy)phenyl)-3-(5-(trifluoromethyl)pyridin-3-yl)urea]: the Cytotoxicity result was “+ (20 % ≤ cytotoxicity < 50%)” in the data set with RD cells (2 day-treatment); “++ (50% ≤ cytotoxicity < 85%)” with RD cells (4 day-treatment); “++ (50% ≤ cytotoxicity < 85%)” with 4T1 cells; “++ (50% ≤ cytotoxicity < 85%)” in the data set with MDA-MB-231 cells; “+++ (cytotoxicity ≥ 85%)” with EoL-1 cells. In addition, the IC50 is 1 to 5 µM with RD cells (48 h, 2 day-treatment); 1 to 5 µM in the data set on RD cells (96 h, 4 day-treatment); 5 to 10 µM in the data set with 4T1 cells; 1 to 5 µM in the data set with MDA-MB-231 cells; under 0.001 µM in the data set with EoL-1 cells; 0.1 to 0.5 µM in the data set on HUVECs. For the same compound, the Angiogenesis inhibition entry with HUVECs was “++ (80% > angiogenesis inhibition ≥ 50%)”.
`Cc1ccc(-n2nc(C(C)(C)C)cc2NC(=O)Nc2ccc(Oc3ccnc4c3OCC(=O)N4)cc2C(F)(F)F)cc1` [Compound 011, 1-[5-tert-butyl-2-(p-tolyl)pyrazol-3-yl]-3-[4-[(3-oxo-4H-pyrido[3,2-b][1,4]oxazin-8-yl)oxy]-2-(trifluoromethyl)phenyl]urea]: the Cytotoxicity result is given as “+ (20 % ≤ cytotoxicity < 50%)” in the data set with RD cells (2 day-treatment); “+ (20 % ≤ cytotoxicity < 50%)” with RD cells (4 day-treatment); “+++ (cytotoxicity ≥ 85%)” in the data set on 4T1 cells; “++ (50% ≤ cytotoxicity < 85%)” in the data set with MDA-MB-231 cells; “++ (50% ≤ cytotoxicity < 85%)” in the data set on EoL-1 cells. Besides, the IC50 is 5 to 10 µM with RD cells (48 h, 2 day-treatment); at least 10 µM with RD cells (96 h, 4 day-treatment); 1 to 5 µM in the data set on 4T1 cells; 1 to 5 µM in the data set on MDA-MB-231 cells; 0.01 to 0.1 µM in the data set on EoL-1 cells; 0.1 to 0.5 µM with HUVECs. The Angiogenesis inhibition entry in the data set on HUVECs is “+++ (angiogenesis inhibition ≥ 80%)”.
In the case of `CSc1cc(Oc2ccnc3c2CCC(=O)N3)ccc1NC(=O)Nc1cc(C(C)(C)C)no1` [Compound 008, 1-(3-(tert-butyl)isoxazol-5-yl)-3-(2-(methylthio)-4-((7-oxo-5,6,7,8-tetrahydro-1,8-naphthyridin-4-yl)oxy)phenyl)urea], the Cytotoxicity entry in the data set with RD cells (2 day-treatment) is recorded as “++ (50% ≤ cytotoxicity < 85%)”; in the data set with RD cells (4 day-treatment) it was “+++ (cytotoxicity ≥ 85%)”; in the data set on 4T1 cells it was “+++ (cytotoxicity ≥ 85%)”; with MDA-MB-231 cells, “++ (50% ≤ cytotoxicity < 85%)”; with EoL-1 cells it was “+++ (cytotoxicity ≥ 85%)”. Moreover, the IC50 was under 1 µM in the data set with RD cells (48 h, 2 day-treatment); under 1 µM in the data set with RD cells (96 h, 4 day-treatment); under 1 µM in the data set with 4T1 cells; under 1 µM in the data set with MDA-MB-231 cells; 0.001 to 0.01 µM in the data set on EoL-1 cells; under 0.1 µM in the data set with HUVECs. For the same compound, the Angiogenesis inhibition entry in the data set on HUVECs is “+++ (angiogenesis inhibition ≥ 80%)”.
On to `CC(C)(C)c1cc(NC(=O)Nc2ccc(Oc3ccnc4c3CCC(=O)N4)c3ccccc23)on1` [Compound 009, 1-(3-(tert-butyl)isoxazol-5-yl)-3-(4-((7-oxo-5,6,7,8-tetrahydro-1,8-naphthyridin-4-yl)oxy)naphthalen-1-yl)urea], for which the Cytotoxicity result was “++ (50% ≤ cytotoxicity < 85%)” with RD cells (2 day-treatment); “++ (50% ≤ cytotoxicity < 85%)” with RD cells (4 day-treatment); “+++ (cytotoxicity ≥ 85%)” in the data set on 4T1 cells; “++ (50% ≤ cytotoxicity < 85%)” in the data set with MDA-MB-231 cells; “+++ (cytotoxicity ≥ 85%)” with EoL-1 cells. Moreover, the IC50 in the data set on RD cells (48 h, 2 day-treatment) was 1 to 5 µM; in the data set on RD cells (96 h, 4 day-treatment), 1 to 5 µM; with 4T1 cells, under 1 µM; with MDA-MB-231 cells, under 1 µM; in the data set with EoL-1 cells it was 0.001 to 0.01 µM; in the data set on HUVECs, under 0.1 µM. Further, the Angiogenesis inhibition entry in the data set with HUVECs is given as “+++ (angiogenesis inhibition ≥ 80%)”.
On to `CSc1cc(Oc2ccnc3c2OCC(=O)N3)ccc1NC(=O)Nc1cc(C(C)(C)C)nn1-c1ccc(CN(C)C)cc1` [Compound 033, 1-[5-tert-butyl-2-[4-[(dimethylamino)methyl]phenyl]pyrazol-3-yl]-3-[2-methylsulfanyl-4-[(3-oxo-4H-pyrido[3,2-b][1,4]oxazin-8-yl)oxy]phenyl]urea], for which the Cytotoxicity result with RD cells (2 day-treatment), with RD cells (4 day-treatment), with 4T1 cells, in the data set on MDA-MB-231 cells and in the data set on EoL-1 cells was “+++ (cytotoxicity ≥ 85%)” in each case. The IC50 in the data set on RD cells (48 h, 2 day-treatment) was 1 to 5 µM; with RD cells (96 h, 4 day-treatment), 1 to 5 µM; in the data set with 4T1 cells, under 1 µM; in the data set with MDA-MB-231 cells, 1 to 5 µM; with EoL-1 cells, 0.001 to 0.01 µM; with HUVECs it was under 0.1 µM. In the data set on HUVECs, the Angiogenesis inhibition entry was “+++ (angiogenesis inhibition ≥ 80%)”.
On to `CC(C)(C)c1cc(NC(=O)Nc2ccc(Oc3ccnc4c3OCC(=O)N4)cc2C(F)(F)F)n(-c2cccc(CN3CCOCC3)c2)n1` [Compound 044, 1-[5-tert-butyl-2-[3-(morpholinomethyl)phenyl]pyrazol-3-yl]-3-[4-[(3-oxo-4H-pyrido[3,2-b][1,4]oxazin-8-yl)oxy]-2-(trifluoromethyl)phenyl]urea], for which the Cytotoxicity entry is given as “+ (20 % ≤ cytotoxicity < 50%)” in the data set on RD cells (2 day-treatment); “+ (20 % ≤ cytotoxicity < 50%)” in the data set on RD cells (4 day-treatment); “+++ (cytotoxicity ≥ 85%)” with 4T1 cells; “+ (20 % ≤ cytotoxicity < 50%)” with MDA-MB-231 cells; “++ (50% ≤ cytotoxicity < 85%)” with EoL-1 cells. For the same compound, the concentration for half-maximal inhibition (IC50) in the data set on RD cells (48 h, 2 day-treatment) is at least 10 µM; in the data set on RD cells (96 h, 4 day-treatment), at least 10 µM; with 4T1 cells, 1 to 5 µM; with MDA-MB-231 cells, 5 to 10 µM; in the data set on EoL-1 cells, 0.01 to 0.1 µM; with HUVECs it was 0.1 to 0.5 µM. In addition, the Angiogenesis inhibition result with HUVECs is on record as “+++ (angiogenesis inhibition ≥ 80%)”.
On to `CSc1cc(Oc2ccnc3c2OCC(=O)N3)ccc1NC(=O)Nc1cc(C(C)(C)C)nn1-c1ccc(F)cc1F` [Compound 031, 1-[5-tert-butyl-2-(2,4-difluorophenyl)pyrazol-3-yl]-3-[2-methylsulfanyl-4-[(3-oxo-4H-pyrido[3,2-b][1,4]oxazin-8-yl)oxy]phenyl]urea], for which the Cytotoxicity entry in the data set on RD cells (2 day-treatment) is “++ (50% ≤ cytotoxicity < 85%)”; in the data set with RD cells (4 day-treatment) it was “++ (50% ≤ cytotoxicity < 85%)”; in the data set on 4T1 cells, “+++ (cytotoxicity ≥ 85%)”; in the data set with MDA-MB-231 cells, “++ (50% ≤ cytotoxicity < 85%)”; in the data set with EoL-1 cells it was “+++ (cytotoxicity ≥ 85%)”. Besides, the half-maximal inhibitory concentration (IC50) with RD cells (48 h, 2 day-treatment) was 1 to 5 µM; in the data set on RD cells (96 h, 4 day-treatment) it was 1 to 5 µM; in the data set on 4T1 cells, 1 to 5 µM; in the data set on MDA-MB-231 cells it was 1 to 5 µM; in the data set on EoL-1 cells, 0.001 to 0.01 µM; with HUVECs, 0.1 to 0.5 µM. In the data set with HUVECs, the Angiogenesis inhibition entry is on record as “+++ (angiogenesis inhibition ≥ 80%)”.
On to `CSc1cc(Oc2ccnc3c2OCC(=O)N3)ccc1NC(=O)Nc1cc(C(C)(C)C)nn1-c1ccc(CCN2CCOCC2)cc1` [Compound 052, 1-[5-tert-butyl-2-[4-[2-(morpholino)ethyl]phenyl]pyrazol-3-yl]-3-[2-methylsulfanyl-4-[(3-oxo-4H-pyrido[3,2-b][1,4]oxazin-8-yl)oxy]phenyl]urea], for which the Cytotoxicity entry in the data set with RD cells (2 day-treatment) is reported as “++ (50% ≤ cytotoxicity < 85%)”; with RD cells (4 day-treatment) it was “++ (50% ≤ cytotoxicity < 85%)”; in the data set with 4T1 cells, “+++ (cytotoxicity ≥ 85%)”; with MDA-MB-231 cells, “+++ (cytotoxicity ≥ 85%)”; in the data set on EoL-1 cells, “+++ (cytotoxicity ≥ 85%)”. The IC50 was 1 to 5 µM with RD cells (48 h, 2 day-treatment); 1 to 5 µM in the data set with RD cells (96 h, 4 day-treatment); under 1 µM with 4T1 cells; 1 to 5 µM in the data set with MDA-MB-231 cells; 0.001 to 0.01 µM with EoL-1 cells; under 0.1 µM with HUVECs. For the same compound, the Angiogenesis inhibition entry in the data set on HUVECs is recorded as “+++ (angiogenesis inhibition ≥ 80%)”.
